Values joined by “and” are separate entries in the source; they are usually repeats but may differ in a detail not shown here. Equal values may be shown once.
target: T1, Muscarinic acetylcholine receptor M2 (Rattus norvegicus, UniProt P10980); assay: Affinity for rat Muscarinic acetylcholine receptor M2
T1 sequence (P10980 whole entry): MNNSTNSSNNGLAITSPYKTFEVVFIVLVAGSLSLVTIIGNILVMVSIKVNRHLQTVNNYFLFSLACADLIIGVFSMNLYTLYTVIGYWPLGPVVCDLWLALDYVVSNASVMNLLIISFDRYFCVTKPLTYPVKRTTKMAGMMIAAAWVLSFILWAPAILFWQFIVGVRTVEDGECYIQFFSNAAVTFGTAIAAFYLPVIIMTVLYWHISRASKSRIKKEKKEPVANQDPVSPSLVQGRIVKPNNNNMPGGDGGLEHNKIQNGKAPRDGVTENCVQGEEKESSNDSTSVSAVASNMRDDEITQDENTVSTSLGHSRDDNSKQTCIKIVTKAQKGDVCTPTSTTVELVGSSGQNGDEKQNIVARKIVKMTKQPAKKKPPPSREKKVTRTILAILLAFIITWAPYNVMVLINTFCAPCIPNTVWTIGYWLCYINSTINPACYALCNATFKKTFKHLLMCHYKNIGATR

| Structure (SMILES) | Ki |
| --- | --- |
| Cc1ccc(O)c(C(CCN2C[C@H]3C[C@H]3C2C)c2ccccc2)c1 (stereo not given in full) | 34 nM and 42 nM |
| Cc1ccc(OCc2ccccc2)c(C(CCN2C[C@@]3(C)C[C@@]3(C)C2)c2ccccc2)c1 (stereo not given in full) | > 10000 nM |
| Cc1ccc(O)c(C(CCN2C[C@H]3C[C@@]3(C)C2)c2ccccc2)c1 (stereo not given in full) | 221 nM |
| O=C(NCC#CCN1CC2CC2C1)C(O)(c1ccc(F)cc1)c1ccc(F)cc1 (stereo not given) | 736 nM |
| O=C(NCC#CCN1CC2CC2C1)C(O)(c1ccccc1)c1ccccc1 (stereo not given) | 639 nM |
| Cc1ccc(OCc2ccccc2)c(C(CCN2C[C@H]3C[C@H]3C2)c2ccccc2)c1 (stereo not given in full) | > 10000 nM |
| Cc1ccc(OCc2ccccc2)c(C(CCN2C[C@H]3C[C@H]3C2C)c2ccccc2)c1 (stereo not given in full) | > 10000 nM |
| Cc1ccc(O)c(C(CCN2C[C@@]3(C)C[C@@]3(C)C2)c2ccccc2)c1 (stereo not given in full) | > 1000 nM |
| O=C(NCC#CCN1CC2CC2C1)C(O)(c1ccccc1)C1CCCCC1 (stereo not given) | 3580 nM |
| Cc1ccc(O)c(C(CCN2CC3C[C@@H]3C2)c2ccccc2)c1 (single isomer, unassigned) | 105 nM |
